Data: patent US8969612B2, “Low interfacial tension surfactants for petroleum applications” (Soane Energy, LLC, priority 2009, dated 2015)

Experiments:
Format in all cases: physicochemical
[1] = Interfacial tension, Du Nouys ring tensiometer (Example 14), interface with ISOPAR M; settings: 1% by weight solution, neutral pH (5 M NaOH)
Description: (§1) Surfactant molecules were tested for their ability to decrease the surface tension across the aqueous-organic interface.

[2] = Viscosity of 70:30 heavy oil to water mixture, Brookfield rheometer (Example 16)
Description: The mixture was gently stirred until it was observed it achieved a single liquid phase. Previously, the viscosity of the neat heavy oil sample was measured at 3431 cP using a Brookfield DVIII+ Rheometer. […] Next, 1 mL of 10 M HCl was added and the mixture was stirred gently, while observing phase separation of the oil and water.

[3] = Interfacial tension, Du Nouys ring tensiometer (Example 14), interface with light crude oil; settings: 1% by weight solution, neutral pH (5 M NaOH); light crude oil API=37.4°
Description: as §1

[4] = Interfacial tension, Du Nouys ring tensiometer (Example 14), interface with air; settings: 1% by weight solution, neutral pH (5 M NaOH)
Description: as §1

[5] = Solubility in water at 25° C.

| Molecule | IFT w/ISOPAR [1] [mN/m] | viscosity of the 70:30 oil to water mixture ([2]; 105 mL heavy oil + 45 mL 1% surfactant solution, neat heavy oil 3431 cP) [cP] | viscosity of oil decanted after phase separation with HCl ([2]; after addition of 1 mL of 10 M HCl to the 70:30 mixture) | IFT w/Crude Oil [3] [mN/m] | IFT w/air [4] [mN/m] | solubility in water (in words) [5] |
| --- | --- | --- | --- | --- | --- | --- |
| 2-(nonen-1-yl)succinic acid mono (2-cyclohexylethyl) ester [Example 3] | 0.09 | 100.2 | same viscosity measurement as the untreated heavy oil sample | <0.01 | 28.68 |  |
| CCCCCC/C=C/CC(CC(=O)OCC(C)(C)COC(=O)CC(C/C=C/CCCCCC)C(=O)O)C(=O)O (stereo not drawn) [Example 2] |  |  |  |  |  | very limited solubility in water |
